Read-outs that look alike come from different tables or passages of the source.
Columns and labels:
[1] = parameters: method as in PMID 27420975; conditions: rats, cited from earlier work
[2] = parameters: method as in PMID 31847686; conditions: ICR mice, oral, cited from earlier work
[3] = stability study in whole mice blood in vitro; assay type: in vitro ADME; conditions: spike 1000 ng/mL, aliquots 5-240 min, peak area
Protocol: To study the stability of K-142 in whole blood of mice, a spike containing the substance at the concentration of 1000 ng/mL was prepared. After preparation, the spike was placed on a shaker and shaken throughout the experiment. Aliquots of the spike with a volume of 50 μL were taken after 5, 10, 15, 30, 60, 120, 180 and 240 min, after which the sample was prepared and analyzed, and K-142 peak area in obtained chromatograms was measured.
It can be seen from the chart (Figure S1) showing the K-142 peak area in the chromatogram that no decrease in its concentration happens for at least 4 h.

[4] = pharmacokinetics study of K-142 after oral administration to mice; assay type: in vivo, CD1 mice; conditions: 20 mg/kg
Protocol: The method has been applied to a pharmacokinetic study of the agent K-142 in mice (n = 8). The substance was administered to the animals orally at a dose of 20 mg/kg. After drug administration, blood samples were taken from the tail vein and treated with the precipitating solution, and the samples were analyzed.
The maximum values of concentrations observed for animals vary in the range from 15 to 90 ng/mL, and the average value is about 46 ng/mL. Thereafter, the content of the substance in the blood gradually decreases, and almost complete excretion is achieved in about 2 h. As the average concentration of K-142 in mice blood was c.a. 3.1 ng/mL, which is below LLOQ, this time point was not included in calculation of pharmacokinetics parameters and is shown in Figure 5 just for information. Due to the same reason, the data on the concentrations of the agent K-142 in animal #8 were also not taken into account for the calculation. The averaged values of pharmacokinetic parameters were calculated for a period of time from 0 to 60 min and are given in Table 1.
Experiments were performed on adult CD1 mice (n = 8) weighing 30–40 g. Animals were obtained from the animal facility of the Institute of Cytology and Genetics SB RAS and kept under standard conditions with free access to food and water. All experiments were performed in accordance with the “European Convention for the Protection of Vertebrate Animals Used for Experimental and other Scientific Purposes”, 1986.
Pharmacokinetics of the agent K-142 was studied at a dose of 20 mg/kg after its oral administration. To prepare the dosage form, a weight of the substance was mixed with c.a. 20 µL of Tween-80 followed by the dilution of the sample with physiological saline to a volume of 0.2 mL per 10 g of mouse bodyweight. Blood aliquots (10 µL) were taken in duplicate from the animal tail vein 10, 20, 30, 45 min, 1, 1.5, 2, 2.5 3, 4, 5 and 6 h after substance administration. The samples were mixed with the precipitation solution and processed according to the protocol and analyzed. Pharmacokinetic parameters were calculated using PKSolver and are presented as mean ± standard error of mean (SEM).

[5] = tested on: RSV serotype A; parameters: method as in PMID 34946573; conditions: cited from earlier work
[6] = tested on: RSV serotype B; parameters: method as in PMID 34946573; conditions: cited from earlier work
[7] = CD1, mouse, whole blood, mean ± SEM, calculated 0-60 min, animal #8 excluded

Compound: CC(C)=CCC/C(C)=C/COc1ccc2ccc(=O)oc2c1 [auraptene]
- Tmax ([1]; oral, 100 mg/kg, plasma): 108.0 ± 25.3 min
- maximum concentration in blood plasma ([1]; oral, 100 mg/kg, plasma): 1719 ± 384.3 ng/mL
- bioavailability [1]: 8.5%

Compound: CC(C)=CCc1c(O)ccc2ccc(=O)oc12 [osthenol]
- Cmax ([2]; 5 mg/kg): 66.1 ± 3.2 ng/mL
- Tmax ([2]; 5 mg/kg): 36.3 ± 13.8 min
- Cmax ([2]; 20 mg/kg): 56.0 ± 29.1 ng/mL
- Tmax ([2]; 20 mg/kg): 6.3 ± 1.3 min
- bioavailability (in words) ([2]; 5 and 20 mg/kg): very low bioavailability

Compound: CC1(C)C2CC=C(COc3ccc4c5c(c(=O)oc4c3)CCCC5)C1C2 (centres unmarked) [K-142]
- time with no decrease in concentration (stability) [3]: at least 4 h
- CL ([4]; mean ± SEM, calculated 0-60 min, animal #8 excluded): (1.3 ± 0.2) × 10^−2 (mg/kg)/(ng/mL)/min
- time at which maximum concentration is reached ([4]; whole blood): 10 min
- time to almost complete excretion ([4]; whole blood): about 2 h
- concentration at 2 h ([4]; CD1, mouse, whole blood, below LLOQ (5 ng/mL), not used for PK calculation, read-out: average concentration in mice blood at about 2 h): ~3.1 ng/mL
- AUC(0-inf) [4, 7]: 26.2 ng·h/mL
- Cmax [4, 7]: 63.4 ± 19.1 ng/mL
- half-life [4, 7]: 27.7 ± 5.4 min
- MRT inf ([4]; CD1, mouse, whole blood, mean ± SEM, calculated 0-60 min, animal #8 excluded, read-out: MRT0–∞ (converted)): 40.5 min
- IC50 ([5]; RSV serotype A): 5 µM
- selectivity index (SI) ([5]; RSV, serotype not specified for SI): 77
- IC50 [6]: 5 µM

From publication PMC9504583, “Stability Study, Quantification Method and Pharmacokinetics Investigation of a Coumarin–Monoterpene Conjugate Possessing Antiviral Properties against Respiratory Syncytial Virus” (Pharmaceuticals, 2022)
